According to patent publication US20250367129A1, “Lipid Compounds and Uses Thereof” (Pfizer Inc., priority 2022, published 2025):

What was measured:
[1] = LNP size and polydispersity index by Malvern Zetasizer dynamic light scattering (CA HA modFlu mRNA LNPs); format: physicochemical; conditions: DLS; for Size (nm): LNP of the ionizable lipid:cholesterol:DSPC:ALC-0159 about 46.3:42.7:9.4:1.6, N:P about 6:1, CA HA modFlu mRNA; for PDI: LNP with CA HA modFlu mRNA
Description: (§1) Lipid nanoparticles were prepared and tested according to the general procedures described in U.S. Pat. No. 9,737,619 (PCT Pub. No. WO2015/199952) and U.S. Pat. No. 10,166,298 (PCT Pub. No. WO 2017/075531) and PCT Pub. No. WO2020/146805. The novel ionizable lipids of the invention, cholesterol, distearoylphosphatidylcholine (DSPC) and ALC-0159 2-[(polyethylene glycol)-2000]-N,N ditetradecylacetamide were solubilized in ethanol at a molar ratio of about 46.3:42.7:9.4:1.6. Lipid nanoparticles were made by mixing the lipids containing organic phase with the mRNA containing aqueous phase using an N:P ratio of about 6:1. The mRNA was diluted in buffer. Syringe pumps were used to mix the ethanolic lipid solution with the mRNA aqueous solution. The ethanol was then removed, and the external buffer replaced with another buffer (e.g., Tris) by dialysis. Finally, the lipid nanoparticles were filtered.
(§2) Total RNA concentration and encapsulation efficiency was assessed using the RiboGreen RNA quantitation assay. RNA integrity pre and post formulation was monitored by Agilent Fragment Analyzer capillary gel electrophoresis. Malvern Zetasizer dynamic light scattering (DLS) was used to determine LNP size and polydispersity index (PDI). In vitro expression of the novel ionizable lipid nanoparticles was assessed in HEK293F and Hela cells similar to described in Example 72. Nuclear count and identification of cells stained positive for gene of interest was done on an Opera Phenix high content imager (PerkinElmer, USA).

[2] = Encapsulation efficiency, RiboGreen RNA quantitation assay (CA HA modFlu mRNA LNPs); format: physicochemical; conditions: LNP with CA HA modFlu mRNA
Description: as §1, §2

HEK293F cells = experiment: In vitro expression of novel ionizable lipid nanoparticles, high content imaging (CA HA modFlu mRNA); format: cell-based; conditions: LNP with CA HA modFlu mRNA
Description: (§3) Plated Hek293T or Hela cells were dosed with lipid nanoparticles in a total volume of 40 μl cell culture media and incubated overnight at 37° C. and 5% CO2. After fixation with 4% paraformaldehyde in PBS cells were washed in PBS containing 0.3% Triton-X100 and 3% BSA (w/v), followed by nuclear staining with Hoechst and antibody staining for the encoded gene of interest. Nuclear count and identification of cells stained positive for gene of interest was done on an Opera Phenix high content imager (PerkinElmer, USA).
as §1, §2

Hela cells = experiment: as above; format: cell-based; conditions: LNP with CA HA modFlu mRNA
Description: as §3, §1, §2

CCCCCCCC(CCCCCCC)C(=O)O[C@@H]1CC2(CCN(CCCCO)CC2)C[C@H]1OC(=O)C(CCCCCCC)CCCCCCC (single isomer, unassigned) [Example 57, (2R*,3R*)-8-(4-hydroxybutyl)-8-azaspiro[4.5]decane-2,3-diyl bis(2-heptylnonanoate)]
Size (nm) [1]: 74 nm | PDI [1]: 0.118 | EE % [2]: 99% | EC50 Hek293F (ng/well) (HEK293F cells): 2.9 ng/well | EC50 Hela (ng/well) (Hela cells): 4.7 ng/well

CCCCCCCC(CCCCCCC)C(=O)O[C@H]1CC2(CCN(CCCCO)CC2)C[C@@H]1OC(=O)C(CCCCCCC)CCCCCCC (single isomer, unassigned) [Example 58, (2S*,3S*)-8-(4-hydroxybutyl)-8-azaspiro[4.5]decane-2,3-diyl bis(2-heptylnonanoate)]
Size (nm) [1]: 79 nm | PDI [1]: 0.125 | EE % [2]: 98% | EC50 Hek293F (ng/well) (HEK293F cells): 1.6 ng/well | EC50 Hela (ng/well) (Hela cells): 1.7 ng/well

CCCCCCCCC(C(=O)OCC(COC(=O)C(CCCCCCCC)C1CCC1)N1CCC2(CCN(CCCCO)CC2)CC1)C1CCC1 (centres unmarked) [Example 4, 2-(9-(4-hydroxybutyl)-3,9-diazaspiro[5.5]undecan-3-yl)propane-1,3-diyl bis(2-cyclobutyldecanoate)]
Size (nm) [1]: 97 nm | PDI [1]: 0.170 | EE % [2]: 98% | EC50 Hek293F (ng/well) (HEK293F cells): 46.9 ng/well | EC50 Hela (ng/well) (Hela cells): >50 ng/well

CCCCCCCCC(CCCCCC)C(=O)OCC(COC(=O)C(CCCCCC)CCCCCCCC)N1CCC2(CCN(CCCCCO)CC2)CC1 (centres unmarked) [Example 5, 2-(9-(5-hydroxypentyl)-3,9-diazaspiro[5.5]undecan-3-yl)propane-1,3-diyl bis(2-hexyldecanoate)]
Size (nm) [1]: 136 nm | PDI [1]: 0.040 | EE % [2]: 100% | EC50 Hek293F (ng/well) (HEK293F cells): 1.32 ng/well | EC50 Hela (ng/well) (Hela cells): 4.3 ng/well

CCCCCCCCC(CCCCCC)C(=O)OCC(COC(=O)C(CCCCCC)CCCCCCCC)N1CCC2(CCN(CCCCO)C2)CC1 (centres unmarked) [Example 6, 2-(2-(4-hydroxybutyl)-2,8-diazaspiro[4.5]decan-8-yl)propane-1,3-diyl bis(2-hexyldecanoate)]
Size (nm) [1]: 133 nm | PDI [1]: 0.080 | EE % [2]: 100% | EC50 Hek293F (ng/well) (HEK293F cells): 0.42 ng/well | EC50 Hela (ng/well) (Hela cells): 1.1 ng/well

CCCCCCCCCCCCCCCC(=O)OCC(COC(=O)C(CCCCCC)CCCCCCCC)N1CCC2(CCN(CCCCO)CC2)CC1 (centres unmarked) [Example 7, 3-((2-hexyldecanoyl)oxy)-2-(9-(4-hydroxybutyl)-3,9-diazaspiro[5.5]undecan-3-yl)propyl palmitate]
Size (nm) [1]: 84 nm | PDI [1]: 0.130 | EE % [2]: 99% | EC50 Hek293F (ng/well) (HEK293F cells): 20.4 ng/well | EC50 Hela (ng/well) (Hela cells): 2.0 ng/well

CCCCCCCC(CCCCCCC)C(=O)OCC(COC(=O)C(CCCCCCC)CCCCCCC)N1CCC2(CCN(CCCNc3c(NC)c(=O)c3=O)CC2)CC1 [Example 8, 2-(9-(3-((2-(methylamino)-3,4-dioxocyclobut-1-en-1-yl)amino)propyl)-3,9-diazaspiro[5.5]undecan-3-yl)propane-1,3-diyl bis(2-heptylnonanoate)]
Size (nm) [1]: 68 nm | PDI [1]: 0.101 | EE % [2]: 100% | EC50 Hek293F (ng/well) (HEK293F cells): 4.1 ng/well | EC50 Hela (ng/well) (Hela cells): 2.5 ng/well

CCCCCCCCC(CCCCCC)C(=O)OCC(COC(=O)C(CCCCCC)CCCCCCCC)N1CCC2(CCN(CCCNC(=O)C3(C)CC3)CC2)CC1 (centres unmarked) [Example 9, 2-(9-(3-(1-methylcyclopropane-1-carboxamido)propyl)-3,9-diazaspiro[5.5]undecan-3-yl)propane-1,3-diyl bis(2-hexyldecanoate)]
Size (nm) [1]: 96 nm | PDI [1]: 0.070 | EE % [2]: 99% | EC50 Hek293F (ng/well) (HEK293F cells): 2.6 ng/well | EC50 Hela (ng/well) (Hela cells): 4.2 ng/well

CCCCCCCC(CCCCCCC)C(=O)OCC(COC(=O)C(CCCCCCC)CCCCCCC)N1CCC2(CCN(CCCO)CC2)CC1 [Example 10, 2-(9-(3-hydroxypropyl)-3,9-diazaspiro[5.5]undecan-3-yl)propane-1,3-diyl bis(2-heptylnonanoate)]
Size (nm) [1]: 109 nm | PDI [1]: 0.054 | EE % [2]: 99% | EC50 Hek293F (ng/well) (HEK293F cells): 1.3 ng/well | EC50 Hela (ng/well) (Hela cells): 1.5 ng/well

CCCCCCCCC(CCCCCC)C(=O)OCC(COC(=O)C(CCCCCC)CCCCCCCC)N1CCC2(CCN(CCCNS(=O)(=O)CC)CC2)CC1 (centres unmarked) [Example 11, 2-(9-(3-(ethylsulfonamido)propyl)-3,9-diazaspiro[5.5]undecan-3-yl)propane-1,3-diyl bis(2-hexyldecanoate)]
Size (nm) [1]: 121 nm | PDI [1]: 0.080 | EE % [2]: 99% | EC50 Hek293F (ng/well) (HEK293F cells): 3.7 ng/well | EC50 Hela (ng/well) (Hela cells): 13.8 ng/well

CCCCCCCC(CCCCCCC)C(=O)OCC(COC(=O)C(CCCCCCC)CCCCCCC)N1CCC2(CCN(CCCCO)C2)C1 (centres unmarked) [Example 12, 2-(7-(4-hydroxybutyl)-2,7-diazaspiro[4.4]nonan-2-yl)propane-1,3-diyl bis(2-heptylnonanoate)]
Size (nm) [1]: 105 nm | PDI [1]: 0.042 | EE % [2]: 100% | EC50 Hek293F (ng/well) (HEK293F cells): 0.22 ng/well | EC50 Hela (ng/well) (Hela cells): 0.44 ng/well

CCCCCCCC(CCCCCCC)C(=O)OCC(COC(=O)C(CCCCCCC)CCCCCCC)N1CC2(CCN(CCCCO)CC2)C1 [Example 13, 2-(7-(4-hydroxybutyl)-2,7-diazaspiro[3.5]nonan-2-yl)propane-1,3-diyl bis(2-heptylnonanoate)]
Size (nm) [1]: 131 nm | PDI [1]: 0.086 | EE % [2]: 99% | EC50 Hek293F (ng/well) (HEK293F cells): 0.36 ng/well | EC50 Hela (ng/well) (Hela cells): 1.6 ng/well

CCCCCCCC(CCCCCCC)C(=O)OCC(COC(=O)C(CCCCCCC)CCCCCCC)N1CCC2(CCN(CCCCO)CC2)C1 [Example 14, 2-(8-(4-hydroxybutyl)-2,8-diazaspiro[4.5]decan-2-yl)propane-1,3-diyl bis(2-heptylnonanoate)]
Size (nm) [1]: 114 nm | PDI [1]: 0.036 | EE % [2]: 100% | EC50 Hek293F (ng/well) (HEK293F cells): 1.5 ng/well | EC50 Hela (ng/well) (Hela cells): 2.5 ng/well

CCCCCCCCC(CCCCCC)C(=O)OCCC(CCOC(=O)C(CCCCCC)CCCCCCCC)N1CCC2(CCN(CCCCO)CC2)CC1 (centres unmarked) [Example 15, 3-(9-(4-hydroxybutyl)-3,9-diazaspiro[5.5]undecan-3-yl)pentane-1,5-diyl bis(2-hexyldecanoate)]
Size (nm) [1]: 110 nm | PDI [1]: 0.120 | EE % [2]: 100% | EC50 Hek293F (ng/well) (HEK293F cells): 4.0 ng/well | EC50 Hela (ng/well) (Hela cells): 2.7 ng/well

CCCCCCCCC(CCCCCC)C(=O)OCC(COC(=O)C(CCCCCC)CCCCCCCC)N1CCC2(CCN(CCCCCO)C2)C1 (centres unmarked) [Example 16, 2-(7-(5-hydroxypentyl)-2,7-diazaspiro[4.4]nonan-2-yl)propane-1,3-diyl bis(2-hexyldecanoate)]
Size (nm) [1]: 134 nm | PDI [1]: 0.090 | EE % [2]: 99% | EC50 Hek293F (ng/well) (HEK293F cells): 0.11 ng/well | EC50 Hela (ng/well) (Hela cells): 0.18 ng/well

CCCCCCCCC(CCCCCC)C(=O)OCC(COC(=O)C(CCCCCC)CCCCCCCC)N1CCC2(CCN(CCCCCO)C2)CC1 (centres unmarked) [Example 17, 2-(2-(5-hydroxypentyl)-2,8-diazaspiro[4.5]decan-8-yl)propane-1,3-diyl bis(2-hexyldecanoate)]
Size (nm) [1]: 149 nm | PDI [1]: 0.053 | EE % [2]: 100% | EC50 Hek293F (ng/well) (HEK293F cells): 0.64 ng/well | EC50 Hela (ng/well) (Hela cells): 1.3 ng/well

CCCCCCCC(CCCCCCC)C(=O)OCC(COC(=O)C(CCCCCCC)CCCCCCC)N1CC2(CCN(CCCCCO)CC2)C1 [Example 18, 2-(7-(5-hydroxypentyl)-2,7-diazaspiro[3.5]nonan-2-yl)propane-1,3-diyl bis(2-heptylnonanoate)]
Size (nm) [1]: 149 nm | PDI [1]: 0.060 | EE % [2]: 99% | EC50 Hek293F (ng/well) (HEK293F cells): 0.57 ng/well | EC50 Hela (ng/well) (Hela cells): 1.4 ng/well

CCCCCCCCC(CCCCCC)C(=O)OCCCC(COC(=O)C(CCCCCC)CCCCCCCC)N1CCC2(CCN(CCCCO)CC2)CC1 (centres unmarked) [Example 19, 2-(9-(4-hydroxybutyl)-3,9-diazaspiro[5.5]undecan-3-yl)pentane-1,5-diyl bis(2-hexyldecanoate)]
Size (nm) [1]: 153 nm | PDI [1]: 0.140 | EE % [2]: 99% | EC50 Hek293F (ng/well) (HEK293F cells): 1.4 ng/well | EC50 Hela (ng/well) (Hela cells): 0.89 ng/well

CCCCCCCC(CCCCCCC)C(=O)OCC(COC(=O)C(CCCCCCC)CCCCCCC)N1CCC2(CC1)CN(CCCCO)C2 [Example 20, 2-(2-(4-hydroxybutyl)-2,7-diazaspiro[3.5]nonan-7-yl)propane-1,3-diyl bis(2-heptylnonanoate)]
Size (nm) [1]: 105 nm | PDI [1]: 0.073 | EE % [2]: 98% | EC50 Hek293F (ng/well) (HEK293F cells): 0.22 ng/well | EC50 Hela (ng/well) (Hela cells): 0.28 ng/well
